Values quoted from earlier work in PubChem BioAssay AID1259409 (Chemical Carcinogenesis Research Information System (CCRIS), 2018).

System: rodent chemically induced tumor inhibition, incidence and multiplicity
Experiment: CCRIS tumor inhibitor studies
Details: for outcome: Carcinogen: N-methyl-N-nitrosourea (684-93-5), study duration 4 wks, Route [Inhibitor]: Oral, Species: Rat, Strain/Sex: F344/DuCrj/Male, Dose [Carcinogen]: 2 mg/rat, 3 x a wk for 4 wks

**Q.** What does the source list for `C[Se]CCC(N)C(=O)O` (stereo not given)?
**A.** tumour outcome (control, treated, inhibition, significance) (Carcinogen: 3'-METHYL-4-DIMETHYLAMINOAZOBENZENE, 55-80-1, Dose [Inhibitor]: 118 UG SELENIUM AS HIGH SELENIUM YEAST/GM IN DIET DAILY STARTING 1 WK PRIOR TO START OF CARCINOGEN TREATMENT AND CONTINU, Route [Inhibitor]: ORAL, Species: RAT, Strain/Sex: SPRAGUE-DAWLEY/MALE, Target Tissue: Type of Lesion: LIVER: ADENOCARCINOMA, Dose [Carcinogen]: 0.05% IN DIET DAILY FOR 8 WK, Promoter: NONE USED): 11/12 (92%), 9/14 (64%), 30%, p 0.04; tumour outcome (control, treated, inhibition, significance) (Carcinogen: 4-(METHYLNITROSAMINO)-1-(3-PYRIDYL)-1-BUTANONE, 64091-91-4, Dose [Inhibitor]: 0, 3.75 PPM IN DIET FOR 3 WK BEGINNING 1 WK PRIOR TO CARCINOGEN DOSE (STUDY DURATION: 18 WK), Route [Inhibitor]: ORAL, Species: MOUSE, Strain/Sex: STRAIN-A/FEMALE, Target Tissue: Type of Lesion: LUNG: TUMOR, Dose [Carcinogen]: 10 UMOL IN 0.1 ML SALINE ONCE, Promoter: NONE USED): 100%, 96%, 4%, not significant; tumour outcome (control, treated, inhibition, significance) (Carcinogen: 4-(METHYLNITROSAMINO)-1-(3-PYRIDYL)-1-BUTANONE, 64091-91-4, Dose [Inhibitor]: 0, 3.75 PPM IN DIET FOR 15 WK BEGINNING 1 WK POST CARCINOGEN DOSE (STUDY DURATION: 18 WK), Route [Inhibitor]: ORAL, Species: MOUSE, Strain/Sex: STRAIN-A/FEMALE, Target Tissue: Type of Lesion: LUNG: TUMOR, Dose [Carcinogen]: 10 UMOL IN 0.1 ML SALINE ONCE, Promoter: NONE USED): 100%, 100%, 0%, not significant; tumour outcome (control, treated, inhibition, significance) (Carcinogen: 7,12-DIMETHYLBENZ[A]ANTHRACENE (DMBA) [57-97-6], Dose [Inhibitor]: 20 UG/D GIVEN 2 WK BEFORE DMBA AND DAILY FOR 1 WK (STUDY DURATION: 120 D), Route [Inhibitor]: ORAL (GAVAGE), Species: RAT, Strain/Sex: WISTAR/FEMALE (12,?)/(12,12), Target Tissue: Type of Lesion: MAMMARY GLAND: CARCINOMA, Dose [Carcinogen]: 12 MG ONCE (STUDY DURATION: 120 D)): 33%, 0%, 100%; tumour outcome (control, treated, inhibition, significance) (Carcinogen: 7,12-DIMETHYLBENZ[A]ANTHRACENE, 57-97-6, Dose [Inhibitor]: 0, 0.2 PPM IN DIET BEGINNING 3 D PRIOR TO CARCINOGEN DOSE AND CONTINUING FOR 8 MO (STUDY DURATION: 8 MO), Route [Inhibitor]: ORAL, Species: MOUSE, Strain/Sex: BALB/FEMALE, Target Tissue: Type of Lesion: MAMMARY GLAND: ADENOCARCINOMA, Dose [Carcinogen]: 1 MG/WK FOR 6 WK, Promoter: NONE USED): 12/31 (39%), 6/21 (29%), 26%, not calculated; tumour outcome (control, treated, inhibition, significance) (Carcinogen: 7,12-DIMETHYLBENZ[A]ANTHRACENE, 57-97-6, Dose [Inhibitor]: 0, 2 PPM IN DIET BEGINNING 3 D PRIOR TO CARCINOGEN DOSE AND CONTINUING FOR 8 MO (STUDY DURATION: 8 MO), Route [Inhibitor]: ORAL, Species: MOUSE, Strain/Sex: BALB/FEMALE, Target Tissue: Type of Lesion: MAMMARY GLAND: ADENOCARCINOMA, Dose [Carcinogen]: 1 MG/WK FOR 6 WK, Promoter: NONE USED): 12/31 (39%), 6/23 (26%), 33%, not calculated; tumour outcome (control, treated, inhibition, significance) (Carcinogen: AZOXYMETHANE [25843-45-2], Dose [Inhibitor]: 10 PPM IN DIET FOR 56 WK BEGINNING 2 WK PRIOR TO FIRST CARCINOGEN DOSE (STUDY DURATION: 56 WK), Route [Inhibitor]: ORAL, Species: RAT, Strain/Sex: F344/MALE, Target Tissue: Type of Lesion: COLON: ADENOMA OR ADENOCARCINOMA, Dose [Carcinogen]: 15 MG/KG BW 1X/WK FOR 2 WK (STUDY DURATION: 56 WK), Promoter: NONE): 76%, 64%, 16%, not significant; tumour outcome (control, treated, inhibition, significance) (Carcinogen: AZOXYMETHANE [25843-45-2], Dose [Inhibitor]: 15 PPM IN DIET FOR 56 WK BEGINNING 2 WK PRIOR TO FIRST CARCINOGEN DOSE (STUDY DURATION: 56 WK), Route [Inhibitor]: ORAL, Species: RAT, Strain/Sex: F344/MALE, Target Tissue: Type of Lesion: COLON: ADENOMA OR ADENOCARCINOMA, Dose [Carcinogen]: 15 MG/KG BW 1X/WK FOR 2 WK (STUDY DURATION: 56 WK), Promoter: NONE): 76%, 89%, -17%, not significant; tumour outcome (control, treated, inhibition, significance) (Carcinogen: N-METHYL-N-NITROSOUREA, 684-93-5, Dose [Inhibitor]: 5 PPM IN DIET DAILY FOR 128 D STARTING 7 D AFTER CARCINOGEN TREATMENT AND CONTINUING FOR DURATION OF STUDY (STUDY DURATI, Route [Inhibitor]: ORAL, Species: RAT, Strain/Sex: SPRAGUE-DAWLEY/FEMALE, Target Tissue: Type of Lesion: MAMMARY GLAND: CARCINOMA, Dose [Carcinogen]: 50 MG/KG BW IN ACIDIFIED SALINE (PH 4.0) ONCE AT AGE 50 D, Promoter: NONE USED): 90%, 95%, -6%, not significant; tumour outcome (control, treated, inhibition, significance) (Carcinogen: N-METHYL-N-NITROSOUREA, 684-93-5, Dose [Inhibitor]: 6 PPM IN DIET DAILY FOR 128 D STARTING 7 D AFTER CARCINOGEN TREATMENT AND CONTINUING FOR DURATION OF STUDY (STUDY DURATI, Route [Inhibitor]: ORAL, Species: RAT, Strain/Sex: SPRAGUE-DAWLEY/FEMALE, Target Tissue: Type of Lesion: MAMMARY GLAND: CARCINOMA, Dose [Carcinogen]: 50 MG/KG BW IN ACIDIFIED SALINE (PH 4.0) ONCE AT AGE 50 D, Promoter: NONE USED): 90%, 80%, 11%, not significant; tumour outcome (control, treated, inhibition, significance) (Carcinogen: NONE USED, Dose [Inhibitor]: 1 PPM IN DIET DAILY STARTING AT AGE 13.8 MO AND CONTINUING FOR LIFE (STUDY DURATION: LIFE), Route [Inhibitor]: ORAL, Species: MOUSE, Strain/Sex: C3H/FEMALE, Target Tissue: Type of Lesion: MAMMARY GLAND: ADENOCARCINOMA, Promoter: NONE USED): 20/26 (77%), 12/26 (46%), 40%, p<0.05; tumour outcome (control, treated, inhibition, significance) (Carcinogen: NONE USED, Dose [Inhibitor]: 1 PPM IN DIET DAILY STARTING AT WEANING AND CONTINUING FOR LIFE (STUDY DURATION: LIFE), Route [Inhibitor]: ORAL, Species: MOUSE, Strain/Sex: C3H/FEMALE, Target Tissue: Type of Lesion: MAMMARY GLAND: ADENOCARCINOMA, Promoter: NONE USED): 20/26 (77%), 7/26 (27%), 65%, p<0.005; tumour outcome (control, treated, inhibition, significance) (Carcinogen: NONE USED, Dose [Inhibitor]: 1 PPM IN DIET DAILY STARTING AT WEANING AND CONTINUING THROUGH AGE 13.8 MO FOL LOWED BY CONTROL DIET FOR LIFE (STUDY DUR, Route [Inhibitor]: ORAL, Species: MOUSE, Strain/Sex: C3H/FEMALE, Target Tissue: Type of Lesion: MAMMARY GLAND: ADENOCARCINOMA, Promoter: NONE USED): 20/26 (77%), 18/26 (69%), 10%, not significant

**Q.** Which “tumour outcome (control, treated, inhibition, significance)” value (Carcinogen: N-NITROSOBIS(2-OXOPROPYL)AMINE, 60599-38-4, Dose [Inhibitor]: 0, 0.25% IN DIET FOR 27 WK BEGINNING POST LAST CARCINOGEN DOSE (STUDY DURATION: 32 WK), Route [Inhibitor]: ORAL, Species: HAMSTER, Strain/Sex: SYRIAN/FEMALE, Target Tissue: Type of Lesion: PANCREAS: ADENOCARCINOMA, Dose [Carcinogen]: 10 MG/KG 1/WK FOR 5 WK, Promoter: NONE USED) does the source give for `CCCCC1C(=O)N(c2ccccc2)N(c2ccccc2)C1=O` here?
**A.** 20/28 (71%), 7/19 (37%), 48%, p<0.05

**Q.** Which outcome (Dose [Inhibitor]: 0, 0.8 mg/kg by gavage 5 d/wk for 1 wk, Dose [Inhibitor]: 0, 0.8 mg/kg by gavage 5 d/wk for 1 wk) does the source give for `C[Si](C)(C)c1cc(C(=O)Nc2ccc(C(=O)O)cc2)cc([Si](C)(C)C)c1` here?
**A.** colon: tumors

**Q.** What about the outcome (Dose [Inhibitor]: 0, 0.8 mg/kg by gavage 5 d/wk for 4 wks, Dose [Inhibitor]: 0, 0.8 mg/kg by gavage 5 d/wk for 4 wks) of the same compound?
**A.** colon: tumors

**Q.** What about the outcome (Dose [Inhibitor]: 0, 8 mg/kg by gavage 5 d/wk for 1 wk, Dose [Inhibitor]: 0, 8 mg/kg by gavage 5 d/wk for 1 wk) of the same compound?
**A.** colon: tumors

**Q.** And the outcome (Dose [Inhibitor]: 0, 8 mg/kg by gavage 5 d/wk for 4 wks, Dose [Inhibitor]: 0, 8 mg/kg by gavage 5 d/wk for 4 wks)?
**A.** colon: tumors

**Q.** Which results are given for `N[C@@H](Cc1ccc(O)cn1)C(=O)O`?
**A.** tumour outcome (control, treated, inhibition, significance) (Carcinogen: 7,12-DIMETHYLBENZ[A]ANTHRACENE, 57-97-6, Dose [Inhibitor]: 0, 2 MG IN 50% ETHANOL 1/3 D BEGINNING 2 D POST CARCINOGEN TREATMENT (STUDY DURATION: 30 WK), Route [Inhibitor]: DERMAL, Species: MOUSE, Strain/Sex: TRANSGENIC/MALE, FEMALE, Target Tissue: Type of Lesion: SKIN: PAPILLOMA, Dose [Carcinogen]: 5 MG/KG/BW ONCE, Promoter: NONE USED): 100%, 45%, 55%, not calculated; tumour outcome (control, treated, inhibition, significance) (Carcinogen: METHYLNITROSOUREA, 684-93-5, Dose [Inhibitor]: 0, 2 MG/MOUSE 1/2 D FOR 12 WK BEGINNING 1 D POST CARCINOGEN TREATMENT (STUDY DURATION: 12 WK), Route [Inhibitor]: INTRAPERITONEAL, Species: MOUSE, Strain/Sex: TRANSGENIC/MALE, FEMALE, Target Tissue: Type of Lesion: FORESTOMACH: PAPILLOMA, Dose [Carcinogen]: 50 MG/KG IN 10 MILLIMOLAR CITRATE BUFFER, Promoter: NONE USED): 100%, 0%, 100%, not calculated
